Paper PMC8881501, “Identification of SARS-CoV-2 inhibitors targeting Mpro and PLpro using in-cell-protease assay” (Communications Biology, 2022)
“And” between values parts separate entries of the source, which are not always exact repeats. Equal entries are not always repeated. Where two headings read alike, the source gives them in different places. Non-standard residues stand in square brackets, D forms with d. Residues, ends and D or L forms follow the SMILES beside them. Nle = CCCC[C@H](N)C(=O)O

Test system: SARS-CoV-2 delta variant
Assay type: cell-based
Settings: Huh 7.5, replicates

Structure (SMILES)	virus titer of delta variant, Fig 6B data (single drug 0.01 μM)	virus titer of delta variant, Fig 6B data (single drug 0.1 μM)	virus titer of delta variant, Fig 6B data (single drug 1 μM)
CCCC[C@@H](C=O)NC(=O)[C@H](CC(C)C)NC(=O)[C@H](CC(C)C)NC(C)=O [MG-101] (Ac-Leu-Leu-[Nle]-aldehyde)	640000 and 800000 and 400000	400000 and 960000 and 800000	240000 (2×) and 160000
N[C@@H](CC(=O)N1CCn2c(nnc2C(F)(F)F)C1)Cc1cc(F)c(F)cc1F [Sitagliptin]	960000 and 720000 and 480000	720000 and 400000 and 560000	560000 and 720000 and 64000
